In US20250144081A1, “METHODS FOR REDUCING ALCOHOL, DRUG, AND FOOD INTAKE” (The Scripps Research Institute, priority 2022, published 2025):
“Also recorded” adds a separate entry of the source. One block for each compound: values may come before it.

Columns and labels:
[1] = test system: C57BL/6J mice; assay: saccharin consumption in the DID paradigm; type: in vivo, mouse; conditions: CYM-5442 5 mg/kg i.p., male C57BL/6J mice, first 2 h and 4 h
From the text: An identical experimental plan was adopted to evaluate acute effects of CYM-5442 on the no-drugs reinforcer saccharin (0.002% w/v). Independent groups of C57BL/6J mice were used for testing the effect of CYM-5442 on saccharin intake.

[2] = in words only; cited from earlier work
[3] = test system: C57BL/6J mice; assay: rotarod test, motor coordination, mice; type: in vivo, mouse; conditions: CYM-5442; male C57BL/6J mice
Protocol: (§1) Effect of CYM-5442 on motor coordination was evaluated in male and female C57NBL/6J mice and male Wistar rats in the rotarod apparatus (Rotamex-5, Columbus Instruments, USA). Briefly, one week before testing, animals were extensively habituated to handling and intraperitoneal injections. On test day, animals were weighed and allocated into the four experimental groups. CYM-5442 or vehicle were injected intraperitoneally 60 min before the start of the first trial. Each subject underwent 3 trials of 300 s (intertrial interval 60 s) with a rotarod acceleration from 4 to 40 rpm. Trials in which animals fell before 5 s, calculated from the beginning of the trial, were repeated. For each animal, the latency to fall was assessed and expressed as the average values over the 3 trials.

[4] = test system: Wistar rats; assay: intravenous methamphetamine self-administration (FR1 and progressive ratio); type: in vivo, rat; conditions: CYM-5442 5 mg/kg i.p., male Wistar rats, vs vehicle
Protocol: The effect of CYM-5442 was tested on methamphetamine self-administering rats. Male Wistar rats were aseptically implanted with chronic silastic catheters in the right jugular vein and were trained to self-administer methamphetamine (1 h/day at a dose of 0.05 mg/kg/infusion). Rats were trained to self-administer methamphetamine under a fixed-ratio 1 schedule of reinforcement (FR1) whereby one lever press results in the delivery of one methamphetamine infusion (0.05 mg/kg) under 1-h daily sessions.
Male Wistar rats were aseptically implanted with intravenous catheters in the right jugular vein under deep isoflurane anesthesia as previously described in Ahmed et al. (Proc Natl Acad Sci USA 102:11533-8). At the time of testing, the rats' body weights ranged between 350 and 400 g.
Self-administration was performed in operant conditioning chambers (Med Associates, St. Albans, VT, USA) that were enclosed in lit, sound-attenuating, ventilated environmental cubicles. Methamphetamine was delivered through plastic catheter tubing that was connected to an infusion pump. The infusion pump was activated by responses on the right (active) lever. […] A computer controlled fluid delivery and behavioral data recording. All of the rats were tested for methamphetamine self-administration on a continuous reinforcement (fixed ratio 1, FR1) schedule. […] A 20-s timeout (TO) period followed each METH infusion. […]

[5] = test system: C57BL/6J mice; assay: acute food intake in 4 h sessions (CLAMS); type: in vivo, mouse; conditions: vs 0 mg/kg
Protocol: The acute effect of CYM-5442 on food intake was measured in 4 h sessions. CYM-5442 was administered 1 h before the sessions. CYM-5442 reduced food intake in a dose-dependent manner at the doses of 2.5 and 5 mg/Kg in the first 2 h (FIG. 7A) and at the dose of 5 mg/kg after 4 h (FIG. 7B).
(§2) Effect of CYM-5442 was evaluated on food (g) and water intake (ml) and respiratory exchange ratio (RER: VCO2/VO2) of male C57BL/6J mice (n=30) allocated into CLAMS (Comprehensive Lab Animal Monitoring System, Columbus Instruments, Columbus, OH USA) chambers. After 1-week acclimatization, on test day, mice were removed from the metabolic chambers, injected with CYM-5442 60 min before 3 h into the dark of the light/dark cycle and then placed back into the chambers. Food, water intake and RER were monitored starting the 1st to the 12th h of the dark phase of the light/dark cycle.

[6] = test system: C57BL/6J mice; assay: chronic treatment of LFD- or HFD-fed mice: body weight, food and water intake; type: in vivo, mouse
Protocol: (§3) The effect of chronic daily administration of CYM-5442 on body weight and body fat content was tested in mice fed either a low-fat diet (LFD; D12450K, 10 kcal % Fat, Research Diets, Inc. NJ, US) or a high-fat diet (HFD; D07011903, 45 kcal % Fat) ad libitum. Mice were treated with CYM-5442 (2.5 mg/kg, i.p.) or vehicle 5 days a week over 7 consecutive weeks. […] This is consistent with the moderate half-life of the drug that allows adlibitum fed mice to eat through the day. This finding supports that the metabolic effect of CYM-5442 of increased fat utilization or lipolysis is independent of reduction of food intake.

[7] = test system: C57BL/6J mice; assay: drinking in the dark (DID) binge drinking paradigm, alcohol intake; type: in vivo, mouse; conditions: for alcohol consumption in the DID paradigm over a 4 h drinking session: first 2 h and 4 h
Protocol: The S1P agonists fingolimod (1, 2, and 4 mg/kg), ozanimod (0.25, 0.5, and 1 mg/kg) and CYM-5442 (1.25, 2.5, and 5 mg/kg) (Tocris, Minneapolis, MN, USA) were suspended in saline with 1% (w/v) Tween 80 and administered intraperitoneally (i.p.) (injection volume in mice 10 ml/kg, in rats 2 ml/kg). Pretreatment time was 30 min for fingolimod and ozanimod, while CYM-5442 was injected 60 min before each behavioral experiment.
Acute effect of the S1P agonists was tested in alcohol binge-like drinking in male and female C57BL/6J mice exposed to the drinking in the dark paradigm. As described by Rhodes and colleagues (Rhodes et al. Physiol Behav 84:53-63, 2005; Thiele et al. Alcohol 48:235-41, 2014) 3 h after lights go off, the water bottle of single-housed mice was replaced with a bottle containing 20% (v/v) alcohol and left in place for 2 h, over three consecutive days during which mice stabilized alcohol drinking. […] Over the experiment, the amount of alcohol consumed by mice was measured by weighing (0.01 g accuracy) the bottle immediately before and after each drinking session. Alcohol consumption was expressed as grams of pure alcohol per kilogram of body weight (g/kg). In addition, at the end of the second 2 h drinking session, blood samples were collected from the tip of the tail of each mouse and BALs were measured.

[8] = test system: C57BL/6J mice; assay: respiratory exchange ratio (RER) by indirect calorimetry (CLAMS); type: in vivo, mouse
Protocol: The effect of CYM-5442 on energy metabolism was tested by indirect calorimetry with the Comprehensive Lab Animal Monitoring System (CLAMS; Columbus Instruments, Columbus, OH USA). After 1-week acclimatization, on test day, mice were removed from metabolic chambers, injected with CYM-5442 3 h into the dark phase of the light/dark cycle and then placed back into chambers. […] The RER indicates the energy source the organism uses over the day. It is typically measured on a scale from 0.7 to 1.
as §2

[9] = test system: Wistar rats; assay: rotarod test, motor coordination, rats; type: in vivo, rat; conditions: CYM-5442 5 mg/kg; male Wistar rats
Protocol: as §1

[10] = test system: C57BL/6J mice; assay: body composition by quantitative nuclear magnetic resonance (qNMR) after chronic treatment; type: in vivo, mouse; conditions: chronic CYM-5442 2.5 mg/kg i.p.
Protocol: as §3
Body composition was determined with a quantitative nuclear magnetic resonance instrument (qNMR, Echo MRI, Houston, TX).

[11] = test system: C57BL/6J mice; assay: loss of righting reflex (LORR), sensitivity to alcohol's hypnotic action; type: in vivo, mouse
[12] = test system: MeCP2^308/Y mice; assay: DID paradigm in low drinking MeCP2^308/Y mice, alcohol intake and BALs; type: in vivo, mouse; conditions: PF-543 10 mg/kg i.p., 30 min before the drinking session
[13] = body weight (fingolimod); conditions: in vivo
[14] = rotarod test, motor impairment by S1P receptor agonists (fingolimod); conditions: in vivo
[15] = test system: mice with degenerative and inflammatory conditions; conditions: cited from earlier work
[16] = CYM-5442 2.5 mg/kg i.p. chronic, HFD-fed or LFD-fed mice, vs vehicle

- lean body mass [10]: without affecting
Structure (SMILES): CCOc1ccc(-c2nc(-c3cccc4c3CCC4NCCO)no2)cc1OCC (centres unmarked) [CYM-5442]
- saccharin [0.002% (w/v)] consumption in the DID paradigm over a 4 h drinking session [1]: reduces
- half-life (circulating) [2]: longer; also recorded: moderate
- motor coordination performance in the rotarod apparatus (latency to fall, active run time) [3]: did not affect; also recorded: does not alter
- lever-responding for methamphetamine, fixed-ratio 1 (FR1), 1-h self-administration session ([4]; acute): significantly reduced
- methamphetamine self-administration under progressive ratio (PR) schedule, break point [4]: significantly reduced; also recorded: lower
- food-intake during the 1st 2-hrs ([5]; CYM-5442 2.5 mg/kg and 5 mg/kg): significantly reduced
- food-intake over the entire 4-hrs session ([5]; CYM-5442 5 mg/kg): reduced
- overall daily (24 h) food intake [6, 16]: did not differ
- overall daily (24 h) water intake [6, 16]: did not differ
- body weight gain in HFD-fed mice ([6]; CYM-5442 2.5 mg/kg i.p. daily, 5 days a week over 7 weeks, vs vehicle-treated HFD-fed mice): effectively prevented
- alcohol consumption in the DID paradigm over a 4 h drinking session ([7]; CYM-5442 2.5, 5 mg/kg i.p., male C57BL/6J mice): reduces
- Respiratory Exchange Ratio (RER), time course ([8]; CYM-5442 i.p. 1.25, 2.5, 5 mg/kg, for 1-3 hours, dose-dependent): significantly lower; also recorded: significantly reduced
- RER, average of 2 hours, first 2 hrs measure point (1-3 hrs after injection) ([8]; CYM-5442 i.p., 0 mg/kg vs 5 mg/kg): significantly reduced
- motor coordination in the rotarod apparatus [9]: did not affect
- body fat in the low-fat diet (LFD)-fed control group (reduction) [10]: not
- body fat in the HFD-fed group ([10]; vs vehicle in HFD, 2.5 mg/kg): significantly reduced
- duration of loss of righting reflex (LORR) ([11]; CYM-5442 2.5 mg/kg i.p., alcohol 3.5 g/kg, male C57BL/6J mice): significantly increases

Structure (SMILES): Cc1cc(CS(=O)(=O)c2ccccc2)cc(OCc2ccc(CN3CCC[C@@H]3CO)cc2)c1 [PF-543]
- alcohol consumption of MeCP2^308/Y mice in the DID paradigm [12]: increased

Structure (SMILES): CCCCCCCCc1ccc(CCC(N)(CO)CO)cc1 [fingolimod]
- half-life (circulating) [2]: longer
- body weight [13]: did not affect
- motor impairment, performance in the rotarod test [14]: did not impair
- alcohol consumption in the DID paradigm over a 4 h drinking session ([7]; fingolimod 4 mg/kg i.p., C57BL/6J mice): reduced
- motor deficits [15]: ameliorated

Structure (SMILES): CC(C)Oc1ccc(-c2nc(-c3cccc4c3CC[C@@H]4NCCO)no2)cc1C#N [ozanimod, Ozanimod (RPC1063)]
- half-life (circulating) [2]: short
- alcohol consumption at the end of the 4-h drinking session (reducing effect) ([7]; ozanimod 0.25-1 mg/kg i.p., C57BL/6J mice, 4 h, p>0.05): not evident
- alcohol consumption in the DID paradigm after 2 h ([7]; ozanimod 0.25-1 mg/kg i.p., C57BL/6J mice, first 2 h, p<0.05): reduced
- motor deficits [15]: ameliorated
- duration of loss of righting reflex (LORR) ([11]; ozanimod 0.1 and 0.3 mg/kg i.p., C57BL/6J mice): significantly increased
